According to ChEMBL document CHEMBL5104211, “Design and synthesis of bile acid derivatives and their activity against colon cancer” (RSC Med Chem, 2022):
Activity calls are given as the source filed them. The calls are words filed in the database; no cut-off is given here.

What was measured:
[1] = tested on: HCT-116; test: Anticancer activity against human HCT-116 cells assessed as inhibition of cell proliferation at 5 to 50 micromol/L incubated for 24 hrs by MTT assay; assay type: functional, cell-based; conditions: dose 5-50 µmol/L, DDE = dose-dependent effect
[2] = tested on: HCT-116; test: Induction of apoptosis in human HCT-116 cells assessed as early apoptotic cells at 30 micromol/L incubated for 48 hrs by annexin V-FITC and propidium iodide staining based flow cytometry analysis (reference value: 2.69%); assay type: functional; conditions: dose 30 µmol/L, at 30 µM
[3] = tested on: HCT-116; test: Induction of mitochondrial membrane potential loss in human HCT-116 cells and measured after 48 hrs by TRME staining based flow cytometric analysis (reference value: 97.52%); assay type: functional
[4] = tested on: A549; test: Anticancer activity against human A549 cells assessed as inhibition of cell proliferation by MTT assay; assay type: functional, cell-based
[5] = tested on: HCT-116; test: Anticancer activity in human HCT-116 cells assessed as downregulation of phosphorylated STAT3 level at 30 micromol/L incubated for 48 hrs by Western blot analysis; assay type: functional, cell-based; conditions: dose 30.0 µmol/L
[6] = tested on: HCT-116; test: Induction of apoptosis in human HCT-116 cells assessed as late apoptotic cells at 30 micromol/L incubated for 48 hrs by annexin V-FITC and propidium iodide staining based flow cytometry analysis (reference value: 7.13%); assay type: functional; conditions: dose 30 µmol/L, at 30 µM
[7] = tested on: HCT-116; test: Anticancer activity against human HCT-116 cells assessed as inhibition of cell proliferation at 20 micromol/L incubated for 24 hrs by MTT assay; assay type: functional; conditions: HCT-116, 24 h, dose 20 µmol/L
[8] = tested on: HCT-116; test: Induction of ROS generation in human HCT-116 cells assessed as increase in intracellular ROS level incubated for 48 hrs by DCFH-DA staining based flow cytometric analysis (Rvb=73.65%); assay type: functional
[9] = tested on: HCT-116; test: Induction of apoptosis in human HCT-116 cells assessed as increase in number of apoptotic cells at 30 micromol/L incubated for 48 hrs by DAPI staining based fluorescence microscopy; assay type: functional, cell-based; conditions: dose 30.0 µmol/L
[10] = tested on: HCT-116; test: Induction of cell cycle arrest in human HCT-116 cells assessed as accumulation G2/M phase at 25 micromol/L and measured after 48 hrs by propidium iodide staining based flow cytometry analysis (Rvb= 11%); assay type: functional; conditions: dose 25 µmol/L, at 25 µM
[11] = tested on: SW480; test: Anticancer activity against human SW480 cells assessed as inhibition of cell proliferation by MTT assay; assay type: functional, cell-based
[12] = tested on: RAW264.7; test: Anti-inflammatory activity against mouse RAW264.7 cells assessed as downregulation of LPS-induced TNF-alpha level at 10 to 25 micromol/L incubated for 24 hrs in presence of LPS by ELISA; assay type: functional, cell-based; conditions: dose 10-25 µmol/L
[13] = tested on: Huh-7; test: Anticancer activity against human Huh-7 cells assessed as inhibition of cell proliferation by MTT assay; assay type: functional, cell-based
[14] = tested on: HCT-116; test: Induction of apoptosis in human HCT-116 cells assessed as retraction of the cytoplasm at 30 micromol/L incubated for 48 hrs by Giemsa staining based fluorescence microscopy; assay type: functional, cell-based; conditions: dose 30.0 µmol/L
[15] = tested on: MGC-803; test: Anticancer activity against human MGC-803 cells assessed as inhibition of cell proliferation by MTT assay; assay type: functional, cell-based
[16] = tested on: HCT-116; test: Anticancer activity against human HCT-116 cells assessed as decrease in number of colonies at 25 micromol/L and measured after 48 hrs by crystal violet dye based colony formation assay; assay type: functional, cell-based; conditions: dose 25.0 µmol/L
[17] = tested on: HCT-116; test: […] activity in human HCT-116 cells assessed as downregulation of Bcl-2 level at 30 micromol/L incubated for 48 hrs by Western blot analysis; assay type: functional, cell-based; conditions: dose 30.0 µmol/L
[18] = tested on: SK-HEP1; test: Anticancer activity against human SK-HEP1 cells assessed as inhibition of cell proliferation by MTT assay; assay type: functional, cell-based
[19] = tested on: HCT-116; test: Induction of apoptosis in human HCT-116 cells assessed as necrotic cells at 30 micromol/L incubated for 48 hrs by annexin V-FITC and propidium iodide staining based flow cytometry analysis (reference value: 0.88%); assay type: functional; conditions: dose 30 µmol/L, at 30 µM
[20] = tested on: HCT-116; test: Induction of apoptosis in human HCT-116 cells assessed as contraction of cell volume at 30 micromol/L incubated for 48 hrs by Giemsa staining based fluorescence microscopy; assay type: functional; conditions: dose 30.0 µmol/L
[21] = tested on: HCT-116; test: Induction of apoptosis in human HCT-116 cells assessed as viable cells at 30 micromol/L incubated for 48 hrs by annexin V-FITC and propidium iodide staining based flow cytometry analysis (reference value: 89.29%); assay type: functional; conditions: HCT-116, 48 h, dose 30 µmol/L, read-out: Activity
[22] = tested on: HT-29; test: Anticancer activity against human HT-29 cells assessed as inhibition of cell proliferation by MTT assay; assay type: functional, cell-based
[23] = tested on: LoVo; test: Anticancer activity against human LoVo cells assessed as inhibition of cell proliferation by MTT assay; assay type: functional, cell-based
[24] = tested on: HCT-116; test: Anticancer activity against human HCT-116 cells assessed as decrease in size of colonies at 25 micromol/L and measured after 48 hrs by crystal violet dye based colony formation assay; assay type: functional, cell-based; conditions: dose 25.0 µmol/L
[25] = tested on: HCT-116; test: Anticancer activity against human HCT-116 cells assessed as inhibition of cell proliferation by MTT assay; assay type: functional, cell-based
[26] = tested on: HCT-116; test: Inhibition of cell invasion in human HCT-116 cells at 20 micromol/L and measured after 24 hrs by crystal violet staining based transwell assay; assay type: functional; conditions: HCT-116, 24 h, dose 20 µmol/L
[27] = tested on: HCT-116; test: Anticancer activity against human HCT-116 cells assessed as inhibition of cell proliferation at 40 micromol/L incubated for 24 hrs by MTT assay; assay type: functional; conditions: HCT-116, 24 h, dose 40 µmol/L
[28] = tested on: HCT-116; test: Induction of apoptosis in human HCT-116 cells assessed as retraction of the nucleus at 30 micromol/L incubated for 48 hrs by Giemsa staining based fluorescence microscopy; assay type: functional, cell-based; conditions: dose 30.0 µmol/L
[29] = Cytotoxicity against human WI-38 cells assessed as inhibition of cell proliferation by MTT assay; assay type: toxicity, cell-based
[30] = tested on: HCT-116; test: Induction of apoptosis in human HCT-116 cells assessed as unclear cell rupture edges at 30 micromol/L incubated for 48 hrs by Giemsa staining based fluorescence microscopy; assay type: functional; conditions: dose 30.0 µmol/L
[31] = tested on: HCT-116; test: Induction of apoptosis in human HCT-116 cells assessed as apoptotic body formation at 30 micromol/L incubated for 48 hrs by Giemsa staining based fluorescence microscopy; assay type: functional, cell-based; conditions: dose 30.0 µmol/L
[32] = tested on: HCT-116; test: Inhibition of cell migration in human HCT-116 cells at 20 micromol/L and measured after 24 hrs by crystal violet staining based transwell assay; assay type: functional; conditions: HCT-116, 24 h, dose 20 µmol/L
[33] = tested on: RKO; test: Anticancer activity against human RKO cells assessed as inhibition of cell proliferation by MTT assay; assay type: functional, cell-based
[34] = tested on: RAW264.7; test: Anti-inflammatory activity against mouse RAW264.7 cells assessed as inhibition of LPS-induced NO production incubated for 24 hrs in presence of LPS by Griess reagent-based assay; assay type: functional, cell-based; conditions: RAW264.7, 24 h
[35] = tested on: HCT-116; test: Anticancer activity against human HCT-116 cells assessed as inhibition of cell proliferation at 20 to 40 micromol/L incubated for 24 to 72 hrs by MTT assay; assay type: functional, cell-based; conditions: dose 20-40 µmol/L, time 24-72 hrs, TDE = time-dependent effect
[36] = tested on: HCT-116; test: […] activity in human HCT-116 cells assessed as upregulation of cleaved caspase-3 level at 30 micromol/L incubated for 48 hrs by Western blot analysis; assay type: functional, cell-based; conditions: dose 30.0 µmol/L

SMILES	inhibition [1]	Activity [2] [%]	Activity [3] [%]	IC50 [4] [µM]	Activity [5]	Activity [6] [%]	Activity [8] [%]	Activity [10] [%]	IC50 [11] [µM]	IC50 [13] [µM]	Activity [14]	IC50 [15] [µM]	Activity [16]	Activity [17]	IC50 [18] [µM]	Activity [19] [%]	Activity [20]	viability at 30 µM [21] [%]	IC50 [22] [µM]	IC50 [23] [µM]	also measured
COc1cc(COC(=O)CC[C@@H](C)[C@H]2CC[C@H]3[C@@H]4[C@H](O)C[C@@H]5C[C@H](O)CC[C@]5(C)[C@H]4C[C@H](O)[C@]23C)cc(OC)c1	Dde	2.01	70.35	34.6	Active	76.88	93.87	89.77	28	126	Active	26.4	Active	Active	50.7	1.65	Active	19.5	27.9	23.1	inhibition at 20 µM [7]: < 40%; Activity [9]: Active; Activity [12]: Active; Activity [24]: Active; IC50 [25]: 23.7 µM; inhibition at 20 µM [26]: 80%; inhibition at 40 µM [27]: 90%; Activity [28]: Active; IC50 [29]: > 500 µM; Activity [30]: Active; Activity [31]: Active; inhibition at 20 µM [32]: 80%; IC50 [33]: 31.7 µM; IC50 [34]: 20.6 µM; inhibition [35]: Tde
C[C@H](CCC(=O)OCc1ccc([N+](=O)[O-])cc1)[C@H]1CC[C@H]2[C@@H]3[C@H](O)C[C@@H]4C[C@H](O)CC[C@]4(C)[C@H]3C[C@H](O)[C@]12C	Dde	0.93	58.32	45.7	Active	84.27	97.06	93.18	31.8	63	Active	21.8	Active	Active	71.9	0.96	Active	13.8	34.8	24.4	inhibition at 20 µM [7]: < 40%; Activity [9]: Active; Activity [12]: Active; Activity [24]: Active; IC50 [25]: 22 µM; inhibition at 20 µM [26]: 80%; inhibition at 40 µM [27]: 90%; Activity [28]: Active; IC50 [29]: > 500 µM; Activity [30]: Active; Activity [31]: Active; inhibition at 20 µM [32]: 80%; IC50 [33]: 29.5 µM; IC50 [34]: 20.6 µM; inhibition [35]: Tde
COC(=O)c1ccc(COC(=O)CC[C@@H](C)[C@H]2CC[C@H]3[C@@H]4[C@H](O)C[C@@H]5C[C@H](O)CC[C@]5(C)[C@H]4C[C@H](O)[C@]23C)cc1	Dde	1.33	71.17	51.1	Active	74.4	91.33	89.39	31.3	52.1	Active	28.5	Active	Active	41.6	1.19	Active	23.1	27.2	28.4	Activity [9]: Active; Activity [12]: Active; Activity [24]: Active; IC50 [25]: 25 µM; Activity [36]: Active; inhibition at 20 µM [26]: 80%; Activity [28]: Active; IC50 [29]: > 500 µM; Activity [30]: Active; Activity [31]: Active; inhibition at 20 µM [32]: 80%; IC50 [33]: 41.2 µM; IC50 [34]: 20.6 µM; inhibition [35]: Tde
Cc1ccc(COC(=O)CC[C@@H](C)[C@H]2CC[C@H]3[C@@H]4[C@H](O)C[C@@H]5C[C@H](O)CC[C@]5(C)[C@H]4C[C@H](O)[C@]23C)cc1	Dde	1.3	51.59	40.5	Active	72.61	95.87	90.66	23.6	51.6	Active	21.9	Active	Active	60.2	0.81	Active	25.3	22.7	18.7	inhibition at 20 µM [7]: < 40%; Activity [9]: Active; Activity [12]: Active; Activity [24]: Active; IC50 [25]: 21.3 µM; inhibition at 20 µM [26]: 80%; inhibition at 40 µM [27]: 90%; Activity [28]: Active; IC50 [29]: > 500 µM; Activity [30]: Active; Activity [31]: Active; inhibition at 20 µM [32]: 80%; IC50 [33]: 27.6 µM; IC50 [34]: 20.6 µM; inhibition [35]: Tde
COC(=O)c1ccc(COC(=O)CC[C@@H](C)[C@H]2CC[C@H]3[C@@H]4[C@H](O)C[C@@H]5C[C@H](O)CC[C@]5(C)[C@H]4CC[C@]23C)cc1	Dde	2.12	79.08	121	Active	62.13	85.75	63.98	36.1	74.8	Active	31.6	Active	Active	49.9	0.89	Active	34.9	29.2	28.3	Activity [24]: Active; IC50 [25]: 28.9 µM; Activity [36]: Active; Activity [28]: Active; IC50 [29]: > 500 µM; Activity [30]: Active; Activity [31]: Active; inhibition at 20 µM [32]: 30%; IC50 [33]: 44.4 µM; inhibition [35]: Tde
